Values of other authors as cited in paper PMC10458307, “New Scaffolds of Proteasome Inhibitors: Boosting Anticancer Potential by Exploiting the Synergy of In Silico and In Vitro Methodologies” (Pharmaceuticals, 2023).
Peptide text beside a SMILES is read from it. * marks the point of attachment. Cbz = O=C(OCc1ccccc1)*

System: proteasome C-L active site
Conditions: literature values; ref 34 (bortezomib), 35 (ixazomib); cited from earlier work
For `CC(C)C[C@H](NC(=O)CNC(=O)c1cc(Cl)ccc1Cl)B(O)O` [Ixazomib, ixazomib], the IC50 is given as 31 nM.

System: proteasome T-L activity
Set-up: method as in PMID 16286248
Conditions: literature value; cited from earlier work
For `C[C@@]12OC(=O)[C@]1([C@@H](O)[C@@H]1C=CCCC1)NC(=O)[C@@H]2CCCl` [Marizomib, marizomib], the IC50 is listed as 28 nM.

System: proteasome CT-L active site
Conditions: literature values of known proteasome inhibitors; reference per compound; cited from earlier work
For `O=c1cc(-c2ccc(O)cc2)oc2cc(O)cc(O)c12` [Apigenin], the IC50 is given as 1800 nM.
For `Oc1cc(O)c2cc(O)c(-c3ccc(O)c(O)c3)[o+]c2c1` [Cyanidin], the IC50 is listed as 18400 nM.
In the case of `Oc1cc(O)c2cc(O)c(-c3cc(O)c(O)c(O)c3)[o+]c2c1` [Delphinidin], the IC50 is listed as 32400 nM.
In the case of `CC[C@H](C)[C@H](NC(=O)[C@H]([C@@H](C)CC)N(C)C(C)=O)C(=O)N[C@H](C(=O)N[C@@H](CC(C)C)C(=O)[C@@]1(C)CO1)[C@@H](C)O` [Epoxomicin], the IC50 is listed as 47 nM.
In the case of `CCCCCCCCC[C@@H](O)CC(=O)N[C@@H](CC(N)=O)C(=O)N[C@@H](CCC(N)=O)C(=O)N[C@H](C=O)CC(C)C` [Fellutamide B], the IC50 is given as 9.4 nM.
In the case of `O=c1c(O)c(-c2ccc(O)cc2)oc2cc(O)cc(O)c12` [Kaempferol], the IC50 is listed as 10500 nM.
In the case of `CC(C)C[C@@H](C=O)NC(=O)[C@H](CC(C)C)NC(=O)[C@H](CC(C)C)NC(=O)OCc1ccccc1` [MG-132] (Cbz-Leu-Leu-Leu-aldehyde), the IC50 is given as 40 nM.
For `COc1cc(-c2[o+]c3cc(O)cc(O)c3cc2O)cc(OC)c1O` [Malvidin], the IC50 is given as 32000 nM.
In the case of `O=c1c(O)c(-c2ccc(O)c(O)c2)oc2cc(O)cc(O)c12` [Quercetin], the IC50 is given as 3500 nM.
In the case of `C/C=C\NC(=O)[C@H]1NC(=O)[C@H](CC(N)=O)NC(=O)[C@@H](NC(=O)C(=O)[C@@H](C)CC)Cc2ccc(O)c(c2)-c2cccc3c2NC(=O)[C@@]3(O)[C@@H]1O` [TMC-95A], the IC50 is given as 5.4 nM.
